Experiment [1] deals with T1, human SUMO-1_18–97 (SUMO) (Homo sapiens, UniProt P63165). The experiment can be described thus: Fluorescence anisotropy competition assay (FAM-SIM tracer displacement from SUMO). The conditions noted are these: for inhibitory potency relative to the parent SIM peptide (in words): fluorescence anisotropy competition assay, backbone N-methyl scan. (In general: Fluorescence polarisation rises when a labelled molecule tumbles more slowly, as on binding a larger partner.)
Procedure: Fluorescence competition anisotropy data. The parent SIM peptide and its N-methylated variants were each
peptide (50 nM) in Tris-buffered saline (20 mM Tris, pH 8.0, 150 mM NaCl and 0.03% Triton-X).
Tris, 150 mM NaCl, 0.01 % Triton-X, pH 7.4 using 50 nM FAM PEG-SIM tracer and 3 μM SUMO protein.
Inhibitory potencies for N-methylated SIM peptides to SUMO. IC50 values were determined through competition
FA experiments (20 mm Tris, 150 mM NaCl, 0.03% Triton X, pH 8.0).
Competition binding assays were performed in triplicate within 384-well plates (Greiner Bio-one). Competitor
nM, 3 μM, 50 nM final concentrations of competitor, SUMO and tracer respectively). Control wells lacked
tracer. The plates were kept in the dark for at least 30 min before fluorescence polarisation was measured.
Labtech), with excitation at 482 nm (bandwidth = 16 nM) and emission at 530 nm (bandwidth = 40 nm). For
(bandwidth = 20 nM) and emission at 535 nm (bandwidth = 25 nm).
Perependicular (P) and parallel (S) intensities of the control wells were averaged and deducted from each
= Ssample – Sav. control). The total sample intensities (I) and anisotropies (r) were then calculated as follows:
Fluorescence anisotropy values were plotted against competitor peptide concentrations and fit to a logistic
function of the form Y = A2 + (A1 – A2) / (1 + (x/x0)p) for determination of half-maximal inhibitory concentrations
Note: To ensure a set of self-consistent IC50 values for comparison, experiments were performed using a single
batch of protein given subtle batch dependent variations in active concentration of protein.

Experiment [2] addresses T1, human SUMO-1_18–97 (SUMO). The experiment can be described thus: Relaxation-based NMR binding kinetics (15N ZZ-exchange for tighter binders, CPMG relaxation dispersion for weaker binders). The conditions noted are these: for koff / kon: pH 7.4.
Source text: Non-overlapping exchange cross-peaks were evident for a subset of residues when the ^15N magnetizations of the bound and unbound states were mixed following t1 (^15N) evolution (ZZ-exchange spectroscopy). Global fitting of the intensities of auto and cross peaks as a function of mixing time to McConnel equations (Fig. 3c, S8–S11; ESI ^† for methods) gave apparent first-order association k^appon and first-order dissociation koff rates for binding, which were converted to kon and dissociation equilibrium constants (KD).
All NMR spectra acquired using 15N-labelled protein samples were acquired at 5 °C, in 20 mM sodium
phosphate pH 7.4, 150 mM NaCl, 0.02% NaN3, on 750 or 600 MHz Bruker NMR spectrometers.
Protein and peptide NMR spectra were processed with NMRPipe and analysed in CcpNmr analysis.
15N ZZ-exchange spectroscopy
15N ZZ-exchange experiments were performed in an interleaved manner as described previously4 using mixing
times between 10 and 500 ms. Data were fit to a simple 2-state model:
where state A represents unbound SUMO and state B represents SUMO bound to SIM. The time-evolution of
the longitudinal magnetisations during mixing are described by the corresponding McConnel equations:4
𝑧 = 𝑘𝑎𝑝𝑝𝑀𝑏𝑎 ‒ 𝑀𝑏𝑏(𝑘 + 𝑅𝑏)
𝑧 = 𝑘 𝑀𝑏𝑏 ‒ 𝑀𝑏𝑎(𝑘𝑎𝑝𝑝 + 𝑅𝑎)
where is the𝑀𝑎𝑎𝑧 z-magnetization of unbound SUMO, is the𝑀𝑏𝑏𝑧 z-magnetization of bound SUMO, and , 𝑀𝑎𝑏𝑧
𝑧 are the z-magnetizations of the corresponding exchange cross-peaks. are11 the longitudinal relaxation
rates for states A and B, and are𝑜𝑛𝑜𝑓𝑓 the pseudo-first order association and dissociation rates,
respectively. Simple analytical solutions to the above equations are available4 and were used to fit the ZZ-
exchange data. Fitting parameters included , residue𝑜𝑛𝑜𝑓𝑓 specific rates,11 and scaling factors
𝐼𝑎𝑎, 𝐼𝑏𝑏 that incorporate any differences in the relaxation rates of the bound and unbound species. Scaling
factors for the exchange cross-peaks were 𝐼𝑎𝑏, 𝐼𝑏𝑎 not included as these were absent at the start of the mixing
period in all cases. Uncertainties in the fitted parameters were calculated using a Monte-Carlo approach based
on the noise of the experiment. Fitting was performed using in-house scripts written in Python employing the
LmFit module available at https://lmfit.github.io/lmfit-py/.
In experiment [3] the target is T1, human SUMO-1_18–97 (SUMO). The experiment can be described thus: Temperature dependence of NMR-derived exchange parameters (Van't Hoff and Eyring analysis). Type of experiment: binding. Also noted: human SUMO-1_18–97 (SUMO); His tag with TEV site (N, cleaved yes); made in house. Particulars: 25 °C; for TΔS, Association (activation, kon) / TΔS, Dissociation (activation, koff) / ΔG, Association (activation, kon) / ΔG, Dissociation (activation, koff) / ΔH, Association (activation, kon) / ΔH, Dissociation (activation, koff): Eyring fit, ± SD of fitted parameter (Monte-Carlo), SD. From the text: Eyring plots were obtained for the temperature-dependence of the kon and koff rates (Fig. 5d and e), from which the association/dissociation activation enthalpies (ΔH^‡ass/ΔH^‡diss), activation/dissociation entropies (TΔS^‡ass/TΔS^‡diss), and thus activation/dissociation free energies (ΔG^‡ass/ΔG^‡diss), could be determined.

Experiment [4] concerns the target T1, human SUMO-1_18–97 (SUMO). The experiment is described as above. Particulars: 25 °C; for TΔS, Binding (KD) / ΔH, Binding (KD): Van't Hoff fit, ± SD of fitted parameter (Monte-Carlo), SD. Further details: human SUMO-1_18–97 (SUMO); His tag with TEV site (N, cleaved yes); made in house. Type of experiment: binding.

The text below walks through data of PMC11220606, “Understanding β-strand mediated protein–protein interactions: tuning binding behaviour of intrinsically disordered sequences by backbone modification” (Chemical Science, 2024).

T1 sequence (P63165 18-97): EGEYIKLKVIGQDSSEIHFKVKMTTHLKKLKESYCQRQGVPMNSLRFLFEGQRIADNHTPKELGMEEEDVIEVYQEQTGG

A word on the IC50: it is the concentration needed to halve the response being measured. Higher therefore signals a need for much substance. As to `CC[C@H](C)[C@H](NC(=O)[C@H](CCC(=O)O)NC(=O)[C@H](CC(N)=O)N(C)C(=O)[C@H](CC(=O)O)NC(C)=O)C(=O)N[C@@H](CCC(=O)O)C(=O)N[C@H](C(=O)N[C@H](C(=O)N[C@H](C(=O)N[C@H](C(=O)N[C@@H](Cc1c[nH]c2ccccc12)C(=O)N[C@@H](CCC(=O)O)C(=O)N[C@@H](CCCCN)C(=O)N[C@@H](CCCCN)C(N)=O)C(C)C)[C@@H](C)CC)[C@@H](C)CC)C(C)C` [Me-Asn2706], the IC50 in experiment [1] turned out to be 9.4 ± 0.5 µM.

In experiment [1], `CC[C@H](C)[C@H](NC(=O)[C@H](CCC(=O)O)NC(=O)[C@H](CC(N)=O)NC(=O)[C@H](CC(=O)O)N(C)C(C)=O)C(=O)N[C@@H](CCC(=O)O)C(=O)N[C@H](C(=O)N[C@H](C(=O)N[C@H](C(=O)N[C@H](C(=O)N[C@@H](Cc1c[nH]c2ccccc12)C(=O)N[C@@H](CCC(=O)O)C(=O)N[C@@H](CCCCN)C(=O)N[C@@H](CCCCN)C(N)=O)C(C)C)[C@@H](C)CC)[C@@H](C)CC)C(C)C` [Me-Asp2705] gave an IC50 of 12.6 ± 0.5 µM.

With `CC[C@H](C)[C@H](NC(=O)[C@@H](NC(=O)[C@H](CCC(=O)O)NC(=O)[C@@H](NC(=O)[C@H](CCC(=O)O)N(C)C(=O)[C@H](CC(N)=O)NC(=O)[C@H](CC(=O)O)NC(C)=O)[C@@H](C)CC)C(C)C)C(=O)N[C@H](C(=O)N[C@H](C(=O)N[C@@H](Cc1c[nH]c2ccccc12)C(=O)N[C@@H](CCC(=O)O)C(=O)N[C@@H](CCCCN)C(=O)N[C@@H](CCCCN)C(N)=O)C(C)C)[C@@H](C)CC` [Me-Glu2707], the IC50 in experiment [1] was found to be 12.4 ± 0.8 µM.

Take `CC[C@H](C)[C@H](NC(=O)[C@@H](NC(=O)[C@H](CCC(=O)O)N(C)C(=O)[C@@H](NC(=O)[C@H](CCC(=O)O)NC(=O)[C@H](CC(N)=O)NC(=O)[C@H](CC(=O)O)NC(C)=O)[C@@H](C)CC)C(C)C)C(=O)N[C@H](C(=O)N[C@H](C(=O)N[C@@H](Cc1c[nH]c2ccccc12)C(=O)N[C@@H](CCC(=O)O)C(=O)N[C@@H](CCCCN)C(=O)N[C@@H](CCCCN)C(N)=O)C(C)C)[C@@H](C)CC` [Me-Glu2709]: the IC50 in experiment [1] was 31.4 ± 3 µM.

Molecule `CC[C@H](C)[C@H](NC(=O)[C@H](CCC(=O)O)NC(=O)[C@H](CC(N)=O)NC(=O)[C@H](CC(=O)O)NC(C)=O)C(=O)N[C@@H](CCC(=O)O)C(=O)N[C@H](C(=O)N[C@H](C(=O)N[C@H](C(=O)N[C@H](C(=O)N[C@@H](Cc1c[nH]c2ccccc12)C(=O)N(C)[C@@H](CCC(=O)O)C(=O)N[C@@H](CCCCN)C(=O)N[C@@H](CCCCN)C(N)=O)C(C)C)[C@@H](C)CC)[C@@H](C)CC)C(C)C` [Me-Glu2715] gave an IC50 in experiment [1] of 27.4 ± 1.9 µM.

One may read the Kd as the concentration at which binding is half-saturated. Lower therefore signals higher affinity. As usually defined, the koff is the rate constant with which the complex falls apart. Higher therefore signals a short-lived complex. The term kon denotes a measure of how fast the partners come together. Molecule `CC[C@H](C)[C@H](NC(=O)[C@@H](NC(=O)[C@H](CCC(=O)O)NC(=O)[C@H]([C@@H](C)CC)N(C)C(=O)[C@H](CCC(=O)O)NC(=O)[C@H](CC(N)=O)NC(=O)[C@H](CC(=O)O)NC(C)=O)C(C)C)C(=O)N[C@H](C(=O)N[C@H](C(=O)N[C@@H](Cc1c[nH]c2ccccc12)C(=O)N[C@@H](CCC(=O)O)C(=O)N[C@@H](CCCCN)C(=O)N[C@@H](CCCCN)C(N)=O)C(C)C)[C@@H](C)CC` [Me-Ile2708] gave an IC50 in experiment [1] of 5.4 ± 0.3 µM. In experiment [2], this molecule displayed a Kd of 14 ± 0.4 µM, a koff of 4.58 ± 0.04 s⁻¹ and an on-rate constant (kon) of 327000 ± 9000 M⁻¹ s⁻¹.

Take `CC[C@H](C)[C@H](NC(=O)[C@H](CCC(=O)O)NC(=O)[C@H](CC(N)=O)NC(=O)[C@H](CC(=O)O)NC(C)=O)C(=O)N[C@@H](CCC(=O)O)C(=O)N[C@H](C(=O)N(C)[C@H](C(=O)N[C@H](C(=O)N[C@H](C(=O)N[C@@H](Cc1c[nH]c2ccccc12)C(=O)N[C@@H](CCC(=O)O)C(=O)N[C@@H](CCCCN)C(=O)N[C@@H](CCCCN)C(N)=O)C(C)C)[C@@H](C)CC)[C@@H](C)CC)C(C)C` [Me-Ile2711, Ac-DNEIEV(NMe)IIVWEKK-NH2]: in experiment [1], the IC50 was above 300 µM and the “inhibitory potency relative to the parent SIM peptide (in words)” value was “significantly diminished inhibitory potency”.

With `CC[C@H](C)[C@H](NC(=O)[C@H](CCC(=O)O)NC(=O)[C@H](CC(N)=O)NC(=O)[C@H](CC(=O)O)NC(C)=O)C(=O)N[C@@H](CCC(=O)O)C(=O)N[C@H](C(=O)N[C@H](C(=O)N(C)[C@H](C(=O)N[C@H](C(=O)N[C@@H](Cc1c[nH]c2ccccc12)C(=O)N[C@@H](CCC(=O)O)C(=O)N[C@@H](CCCCN)C(=O)N[C@@H](CCCCN)C(N)=O)C(C)C)[C@@H](C)CC)[C@@H](C)CC)C(C)C` [Me-Ile2712, Ac-DNEIEVI(NMe)IVWEKK-NH2], in experiment [3], the “TΔS‡ass more favourable than parent by” value was “≈ 11 kJ mol^−1”; the “ΔH‡ass more unfavourable than parent by” value is given as “≈ 8 kJ mol^−1”; the “TΔS, Association (activation, kon)” value came out at 34.78 ± 0.502 kcal/mol; the “TΔS, Dissociation (activation, koff)” value was -3.51 ± 0.048 kcal/mol. In experiment [3], the “ΔG, Association (activation, kon)” value was found to be 6.57 ± 0.526 kcal/mol; the “ΔG, Dissociation (activation, koff)” value amounted to 15.5 ± 0.096 kcal/mol; the “ΔH, Association (activation, kon)” value was 41.23 ± 0.502 kcal/mol; the “ΔH, Dissociation (activation, koff)” value came to 12 ± 0.072 kcal/mol. In addition, the IC50 in experiment [1] was determined as 7.9 ± 1 µM. For the same molecule, in experiment [4], the “decrease in ΔGbind relative to parent” value was found to be 0.72 kcal/mol; the “increase in enthalpy (ΔHbind) in comparison to the parent SIM peptide” value is around 2.87 kcal/mol; the “increase in entropy of binding (TΔSbind) in comparison to the parent SIM peptide” value is around 3.59 kcal/mol; the “TΔS, Binding (KD)” value was found to be 38.67 ± 0.478 kcal/mol. For the same molecule, the “ΔH, Binding (KD)” value in experiment [4] stood at 29.92 ± 0.048 kcal/mol. In experiment [2], this molecule registered a Kd of 14.5 ± 0.9 µM, a koff of 5.9 ± 0.08 s⁻¹ and a kon of 410000 ± 28000 M⁻¹ s⁻¹. For the same molecule, the “ΔΔG vs. parent (increase in affinity)” value in experiment [2] (from KD values of 15N ZZ-exchange data at 5 °C) is around 0.48 kcal/mol.

For `CC[C@H](C)[C@H](NC(=O)[C@H](CCC(=O)O)NC(=O)[C@H](CC(N)=O)NC(=O)[C@H](CC(=O)O)NC(C)=O)C(=O)N[C@@H](CCC(=O)O)C(=O)N[C@H](C(=O)N[C@H](C(=O)N[C@H](C(=O)N[C@H](C(=O)N[C@@H](Cc1c[nH]c2ccccc12)C(=O)N[C@@H](CCC(=O)O)C(=O)N(C)[C@@H](CCCCN)C(=O)N[C@@H](CCCCN)C(N)=O)C(C)C)[C@@H](C)CC)[C@@H](C)CC)C(C)C` [Me-Lys2716], in experiment [3], the “TΔS, Association (activation, kon)” value turned out to be 3.11 ± 0.048 kcal/mol; the “TΔS, Dissociation (activation, koff)” value is -9.2 ± 0.024 kcal/mol; the “ΔG, Association (activation, kon)” value is 8.46 ± 0.072 kcal/mol; the “ΔG, Dissociation (activation, koff)” value is 13.5 ± 0.024 kcal/mol. In addition, in experiment [3], the “ΔH, Association (activation, kon)” value amounted to 11.6 ± 0.048 kcal/mol and the “ΔH, Dissociation (activation, koff)” value was 4.28 ± 0.024 kcal/mol. In addition, in experiment [1], the 50% inhibitory concentration (IC50) was above 100 µM. Further, in experiment [4], the “TΔS, Binding (KD)” value is 12.5 ± 0.048 kcal/mol and the “ΔH, Binding (KD)” value was found to be 7.5 ± 0.048 kcal/mol. In addition, in experiment [2], the Kd is 510 ± 40 µM, the koff is 553 ± 17 s⁻¹ and the association rate constant (kon) was found to be 1.09e+06 ± 70000 M⁻¹ s⁻¹.

For the molecule `CC[C@H](C)[C@H](NC(=O)[C@H](CCC(=O)O)NC(=O)[C@H](CC(N)=O)NC(=O)[C@H](CC(=O)O)NC(C)=O)C(=O)N[C@@H](CCC(=O)O)C(=O)N[C@H](C(=O)N[C@H](C(=O)N[C@H](C(=O)N[C@H](C(=O)N[C@@H](Cc1c[nH]c2ccccc12)C(=O)N[C@@H](CCC(=O)O)C(=O)N[C@@H](CCCCN)C(=O)N(C)[C@@H](CCCCN)C(N)=O)C(C)C)[C@@H](C)CC)[C@@H](C)CC)C(C)C` [Me-Lys2717], the IC50 in experiment [1] was 10 ± 0.4 µM. In experiment [2], this molecule yielded a Kd of 13.6 ± 0.5 µM, a koff of 8.95 ± 0.12 s⁻¹ and a kon of 657000 ± 27000 M⁻¹ s⁻¹.

With `CC[C@H](C)[C@H](NC(=O)[C@H](CCC(=O)O)NC(=O)[C@H](CC(N)=O)NC(=O)[C@H](CC(=O)O)NC(C)=O)C(=O)N[C@@H](CCC(=O)O)C(=O)N[C@H](C(=O)N[C@H](C(=O)N[C@H](C(=O)N[C@H](C(=O)N(C)[C@@H](Cc1c[nH]c2ccccc12)C(=O)N[C@@H](CCC(=O)O)C(=O)N[C@@H](CCCCN)C(=O)N[C@@H](CCCCN)C(N)=O)C(C)C)[C@@H](C)CC)[C@@H](C)CC)C(C)C` [Me-Trp2714], in experiment [1], the IC50 was above 100 µM and the “inhibitory potency relative to the parent SIM peptide (in words)” value is “significantly diminished inhibitory potency”.

In experiment [1], `CC[C@H](C)[C@H](NC(=O)[C@H](CCC(=O)O)NC(=O)[C@H](CC(N)=O)NC(=O)[C@H](CC(=O)O)NC(C)=O)C(=O)N[C@@H](CCC(=O)O)C(=O)N(C)[C@H](C(=O)N[C@H](C(=O)N[C@H](C(=O)N[C@H](C(=O)N[C@@H](Cc1c[nH]c2ccccc12)C(=O)N[C@@H](CCC(=O)O)C(=O)N[C@@H](CCCCN)C(=O)N[C@@H](CCCCN)C(N)=O)C(C)C)[C@@H](C)CC)[C@@H](C)CC)C(C)C` [Me-Val2710] had an IC50 above 100 µM. In experiment [2], this molecule displayed a Kd of 388 ± 7 µM, a koff of 208 ± 1 s⁻¹ and a kon of 536000 ± 10000 M⁻¹ s⁻¹.

As to `CC[C@H](C)[C@H](NC(=O)[C@H](CCC(=O)O)NC(=O)[C@H](CC(N)=O)NC(=O)[C@H](CC(=O)O)NC(C)=O)C(=O)N[C@@H](CCC(=O)O)C(=O)N[C@H](C(=O)N[C@H](C(=O)N[C@H](C(=O)N(C)[C@H](C(=O)N[C@@H](Cc1c[nH]c2ccccc12)C(=O)N[C@@H](CCC(=O)O)C(=O)N[C@@H](CCCCN)C(=O)N[C@@H](CCCCN)C(N)=O)C(C)C)[C@@H](C)CC)[C@@H](C)CC)C(C)C` [Me-Val2713], in experiment [1], the IC50 was above 100 µM and the “inhibitory potency relative to the parent SIM peptide (in words)” value is recorded as “significantly diminished inhibitory potency”.
